Data taken from ChEMBL document CHEMBL1201862, “PubChem BioAssay data set” (2004).
Activity calls are given as the source filed them.

Key:
ORF 73 = target: T1, ORF 73 (Human herpesvirus 8, UniProt O40947); assay: inhibitors of C-LANA binding to LBS DNA, dose response, biochemical, fluorescence polarization, cherry-picked samples (AID 504725); parameters: species or system Human gammaherpesvirus 8;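 also: fluorescence polarization of a labeled DNA duplex reporting LANA DNA binding; potency is for inhibitors that block LANA binding to the DNA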
T1 sequence (O40947 whole entry): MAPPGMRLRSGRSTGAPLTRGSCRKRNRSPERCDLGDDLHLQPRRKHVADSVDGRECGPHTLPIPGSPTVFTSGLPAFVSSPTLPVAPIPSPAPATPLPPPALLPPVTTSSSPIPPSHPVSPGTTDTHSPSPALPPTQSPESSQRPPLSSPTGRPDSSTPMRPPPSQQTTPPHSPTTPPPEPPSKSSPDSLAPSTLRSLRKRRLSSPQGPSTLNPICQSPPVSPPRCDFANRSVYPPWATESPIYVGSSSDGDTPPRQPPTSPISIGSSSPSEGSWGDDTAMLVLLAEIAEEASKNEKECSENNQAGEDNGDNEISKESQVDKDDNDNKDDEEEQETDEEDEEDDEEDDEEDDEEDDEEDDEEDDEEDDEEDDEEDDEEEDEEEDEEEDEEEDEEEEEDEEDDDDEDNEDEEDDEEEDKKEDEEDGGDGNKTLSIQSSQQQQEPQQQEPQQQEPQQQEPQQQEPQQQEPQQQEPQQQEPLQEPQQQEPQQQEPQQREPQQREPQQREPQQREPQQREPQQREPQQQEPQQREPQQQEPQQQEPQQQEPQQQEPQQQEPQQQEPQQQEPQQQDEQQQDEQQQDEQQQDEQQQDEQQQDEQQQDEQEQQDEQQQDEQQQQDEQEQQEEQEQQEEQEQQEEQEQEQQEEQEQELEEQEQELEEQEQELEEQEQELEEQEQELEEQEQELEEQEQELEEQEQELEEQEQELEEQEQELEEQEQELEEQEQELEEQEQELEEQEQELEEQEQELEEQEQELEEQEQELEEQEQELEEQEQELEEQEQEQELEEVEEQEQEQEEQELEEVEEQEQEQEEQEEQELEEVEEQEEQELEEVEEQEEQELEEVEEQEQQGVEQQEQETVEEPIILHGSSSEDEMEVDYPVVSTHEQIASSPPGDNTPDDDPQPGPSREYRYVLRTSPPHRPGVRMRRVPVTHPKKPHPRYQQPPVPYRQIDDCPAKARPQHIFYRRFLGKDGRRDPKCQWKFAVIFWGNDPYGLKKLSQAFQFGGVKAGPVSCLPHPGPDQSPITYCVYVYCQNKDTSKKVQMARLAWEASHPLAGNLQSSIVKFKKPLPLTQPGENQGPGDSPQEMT

[1] = target: UDP-galactopyranose mutase (Mycobacterium tuberculosis, UniProt P9WIQ1); assay: Inhibitors of Mycobacterium tuberculosis UDP-galactopyranose mutase (UGM) enzyme Measured in Biochemical System Using Plate Reader - 2105-02_Inhibitor_Dose_CherryPick_Activity. [Related pubchem assays (depositor defined):AID504439]
UDP-galactopyranose mutase, sequence (P9WIQ1 whole entry, the tested form may be a part): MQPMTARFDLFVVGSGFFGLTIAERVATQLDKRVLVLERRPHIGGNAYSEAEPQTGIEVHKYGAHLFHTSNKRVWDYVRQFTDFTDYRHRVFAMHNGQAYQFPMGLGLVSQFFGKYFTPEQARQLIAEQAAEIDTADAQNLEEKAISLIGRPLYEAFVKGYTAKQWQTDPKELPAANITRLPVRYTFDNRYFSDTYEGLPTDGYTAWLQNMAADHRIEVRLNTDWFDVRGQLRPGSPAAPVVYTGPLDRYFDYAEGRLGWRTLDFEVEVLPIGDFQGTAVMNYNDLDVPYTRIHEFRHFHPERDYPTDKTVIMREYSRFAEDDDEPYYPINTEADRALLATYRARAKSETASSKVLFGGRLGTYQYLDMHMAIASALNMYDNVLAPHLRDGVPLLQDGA

[2] = target: T2, RNA-binding protein pos-1 (Caenorhabditis elegans, UniProt G5EF15); assay: inhibitors of POS-1/mex-3 RNA binding, dose response, biochemical, fluorescence polarization (AID 1964);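 also: purified POS-1 fused to maltose binding protein made in E. coli; potency of compounds blocking POS-1 binding to fluorescent RNA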
T2 sequence (G5EF15 whole entry): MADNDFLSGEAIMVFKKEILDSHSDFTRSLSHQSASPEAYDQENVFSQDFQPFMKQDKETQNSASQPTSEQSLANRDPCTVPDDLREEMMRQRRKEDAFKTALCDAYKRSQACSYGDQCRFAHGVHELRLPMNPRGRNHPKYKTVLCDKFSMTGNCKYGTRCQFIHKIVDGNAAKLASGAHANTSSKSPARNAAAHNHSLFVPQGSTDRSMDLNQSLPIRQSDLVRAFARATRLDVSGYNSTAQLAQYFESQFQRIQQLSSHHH

[3] = target: T3, Zinc finger protein mex-5 (Caenorhabditis elegans, UniProt Q9XUB2); assay: MEX-5/TCR-2 RNA interaction inhibitors, dose response, biochemical, C. elegans, fluorescence polarization (AID 1960)
T3 sequence (Q9XUB2 whole entry): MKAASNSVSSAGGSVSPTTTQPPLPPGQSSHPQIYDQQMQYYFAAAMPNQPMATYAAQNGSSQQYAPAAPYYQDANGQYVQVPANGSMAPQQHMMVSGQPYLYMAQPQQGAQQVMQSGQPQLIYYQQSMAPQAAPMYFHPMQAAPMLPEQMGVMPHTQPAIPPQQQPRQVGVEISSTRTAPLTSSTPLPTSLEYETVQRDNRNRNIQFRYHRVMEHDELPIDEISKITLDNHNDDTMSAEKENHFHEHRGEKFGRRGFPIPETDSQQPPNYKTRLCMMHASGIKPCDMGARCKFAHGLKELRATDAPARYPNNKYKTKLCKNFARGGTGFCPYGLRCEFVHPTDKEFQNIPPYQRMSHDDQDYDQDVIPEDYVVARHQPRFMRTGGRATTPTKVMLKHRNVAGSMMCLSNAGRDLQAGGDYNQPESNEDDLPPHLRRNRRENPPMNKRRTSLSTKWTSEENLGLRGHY

Cc1ccc(C)c(N2CCN(C(=O)c3cc4ccccn4n3)CC2)c1
active: AC50 (ORF 73) 269 µM | AC50 [1] 177 µM | EC50 [2] 72.9 µM | EC50 [3] 33.7 µM
